Experimental data from PubChem BioAssay (NCI).
“And” between values parts separate entries of the source, which are not always exact repeats. Equal entries are not always repeated.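 Method: 48-hour compound exposure of cells in 96-well plates, five concentrations, linear interpolation of endpoints. The concentration for 50% growth inhibition is given as GI50. At the TGI there is no net growth.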

Experiments:
Assay in all cases: DTP human tumour cell line panel, 48 h
HCT-116 colon = tested on: HCT-116 colon
HS 578T breast = tested on: HS 578T breast
A498 renal = tested on: A498 renal
KM12 colon = tested on: KM12 colon
HOP-92 NSCLC = tested on: HOP-92 NSCLC
IGROV1 ovarian = tested on: IGROV1 ovarian
HT29 colon = tested on: HT29 colon
MCF7 breast = tested on: MCF7 breast
CCRF-CEM leukemia = tested on: CCRF-CEM leukemia
HCT-15 colon = tested on: HCT-15 colon

Row | SMILES | GI50 (HCT-116 colon) | TGI (HCT-116 colon) | GI50 (HS 578T breast) | TGI (HS 578T breast) | GI50 (A498 renal) | TGI (A498 renal) | GI50 (KM12 colon) | TGI (KM12 colon) | GI50 (HOP-92 NSCLC) | TGI (HOP-92 NSCLC) | GI50 (IGROV1 ovarian) | TGI (IGROV1 ovarian) | GI50 (HT29 colon) | TGI (HT29 colon) | GI50 (MCF7 breast) | TGI (MCF7 breast) | GI50 (CCRF-CEM leukemia) | TGI (CCRF-CEM leukemia) | GI50 (HCT-15 colon) | TGI (HCT-15 colon)
1 | CCN(CC)CCCNc1nc2ccccc2c2c(=O)c3cc(Cl)ccc3sc12 | 1.73 µM | 3.22 µM | 3.13 µM | 14.8 µM | 8.42 µM | 21.4 µM | 1.79 µM | 3.24 µM | 1.57 µM | 6.58 µM | 1.36 µM | 3.1 µM | 1.9 µM | 3.98 µM | 1.32 µM | 2.91 µM | 2.81 µM | 8.68 µM | 1.61 µM | 3.14 µM
2 | CC(C)=CC(O)C/C(C)=C/CC/C(C)=C/CCC1(C)C(CCCO)/C(=C(/C)C=O)CCC1(C)O (configuration not stated) | – | > 100 µM | – | > 100 µM | – | > 100 µM | – | 52.9 µM | – | > 100 µM | – | 61.7 µM | – | 70.9 µM | – | 79.2 µM | – | > 100 µM | – | > 100 µM
3 | O=C1/C(=C/c2ccc([N+](=O)[O-])o2)Oc2ccccc21 | 0.332 µM | 1.36 µM | 2.88 µM | 21.4 µM | 1.93 µM | 4.4 µM | 1.77 µM | 3.48 µM | 0.912 µM | 2.62 µM | 1.37 µM | 3.62 µM | 0.613 µM | 2.84 µM | 0.827 µM | 3.11 µM | 0.338 µM | 1.38 µM | 0.341 µM | 1.43 µM
4 | O=C1c2cccc3cccc(c23)C(=O)N1CCCCN1CCN(CCCCOc2ccc(-c3nc4ccc(N5CCOCC5)cc4[nH]3)cc2)CC1 | > 100 µM | > 100 µM | > 100 µM | > 100 µM | > 100 µM | > 100 µM | > 100 µM | > 100 µM | > 100 µM | > 100 µM | 61.9 µM | > 100 µM | > 100 µM | > 100 µM | > 100 µM | > 100 µM | > 100 µM | > 100 µM | 56.2 µM | > 100 µM
5 | Cc1ccc(NSc2ccccc2[N+](=O)[O-])cc1 | 0.48 µM | 12.1 µM | 0.921 µM | 13.8 µM | 0.186 µM | 3.75 µM | 0.141 µM | 12.5 µM | 0.502 µM | 13.7 µM | 1.25 µM | 28.2 µM | 0.117 µM | 12.3 µM | 0.133 µM | 16.2 µM | 0.85 µM | > 52.2 µM | 0.155 µM | 14.2 µM
6 | O=C1Nc2ccccc2/C1=C/c1ccccc1 | – | 27 µM | – | 91.8 µM | – | 30.5 µM | – | 33.2 µM | – | 25.5 µM | – | 33.1 µM | – | 48 µM | – | 23.7 µM | – | 71.6 µM | – | 35.4 µM
7 | C=C(C)[C@@H]1CC[C@]2(C(=O)O)CC[C@]3(C)[C@H](CC[C@@H]4[C@@]5(C)C[C@@H](CC#Cc6ccc(Br)cc6)C(=O)C(C)(C)[C@@H]5CC[C@]43C)[C@@H]12 | 4.34 µM | 83.3 µM | 6.26 µM | > 100 µM | 2.42 µM | 7.29 µM | 4.54 µM | > 100 µM | 17 µM | 36.4 µM | 4.07 µM | 24.9 µM | 4.83 µM | > 100 µM | 4.94 µM | > 100 µM | 3.57 µM | > 100 µM | 25.8 µM | > 100 µM
8 | O[C@@H]1CCCN1Cc1cc2cc3c(cc2c2cc(OCc4ccccc4)ccc12)OCO3 | 2.1 µM | 5.16 µM | 2.82 µM | 9.07 µM | 10.5 µM | 25.3 µM | 3.2 µM | 8.95 µM | 1.53 µM | 5.36 µM | 5.48 µM | 20.1 µM | 1.94 µM | 5.09 µM | 2.15 µM | 5.07 µM | 4.35 µM | 14.4 µM | 3.47 µM | 12.3 µM
9 | COc1cc(OC)c2cc(C(=O)O)c(=O)oc2c1 | > 100 µM | > 100 µM | – | > 51.4 µM | > 21.4 µM | > 75 µM | > 100 µM | > 100 µM | > 100 µM | > 100 µM | > 84.9 µM | > 100 µM | > 100 µM | > 100 µM | > 100 µM | > 100 µM | > 100 µM | > 100 µM | > 100 µM | > 100 µM
10 | Cc1cc(O)ccc1O | 16.9 µM | 32.9 µM | 26.7 µM | > 100 µM | 79.9 µM | > 100 µM | 26.2 µM | > 100 µM | 16.3 µM | 31.2 µM | 16.6 µM | 31 µM | 49.8 µM | > 100 µM | 19 µM | 69.8 µM | 3.4 µM | > 100 µM | 16.6 µM | 34.8 µM
11 | C/C1=C\CC[C@@]2(C)O[C@@H]2C[C@@H]2[C@H](C/C(C)=C/CC1)OC(=O)C21CCN=N1 (some centres not stated) | > 100 µM | > 100 µM | > 100 µM | 75 µM and > 100 µM | – | > 100 µM | > 100 µM | > 100 µM | – | > 75 µM | > 100 µM | > 100 µM | > 100 µM | > 100 µM | > 100 µM | > 100 µM | 44.9 µM | 75 µM and > 100 µM | > 100 µM | > 100 µM
12 | Cn1ccnc1C(=O)/C=C/c1ccc(C(=O)Nc2ccccc2O)cc1 | 0.866 µM | 2.64 µM | 2.95 µM | 15.9 µM | 2.07 µM | 6.18 µM | 1.96 µM | 4.44 µM | 2.11 µM | 6.68 µM | 1.97 µM | 4.88 µM | 2.4 µM | 7.3 µM | 1.77 µM | 6.51 µM | 1.13 µM | 8.25 µM | 1.42 µM | 5.49 µM
13 | COc1cc(C2CC(c3ccc(Nc4ccnc5cc(Cl)ccc45)cc3)=NN2C=O)cc(OC)c1OC (configuration not stated) | 3.21 µM | 9.61 µM | 3.24 µM | 27.7 µM | 15.3 µM | 49.5 µM | 5.87 µM | > 100 µM | 1.83 µM | 5.59 µM | 22.3 µM | > 100 µM | 2.83 µM | 7.17 µM | 3.23 µM | > 100 µM | 1.82 µM | 69.4 µM | 3.56 µM | > 100 µM
